Measured values as given in patent US11065257B2, “Substituted pyrazoloazepin-4-ones and their use as phosphodiesterase inhibitors” (LEO Pharma A/S, priority 2016, dated 2021).

The compounds below were run against T1, human PDE4D catalytic domain (Homo sapiens, UniProt Q08499) (assay: PDE4 Assay). Conditions: human PDE4D catalytic domain (S380-L740), TR-FRET with FAM-cAMP; expressed as a range of IC50; read-out: PDE4 Potency Range.
T1 construct: UniProt no; Q08499 [S380-L740]
T1 sequence (Q08499 380-740): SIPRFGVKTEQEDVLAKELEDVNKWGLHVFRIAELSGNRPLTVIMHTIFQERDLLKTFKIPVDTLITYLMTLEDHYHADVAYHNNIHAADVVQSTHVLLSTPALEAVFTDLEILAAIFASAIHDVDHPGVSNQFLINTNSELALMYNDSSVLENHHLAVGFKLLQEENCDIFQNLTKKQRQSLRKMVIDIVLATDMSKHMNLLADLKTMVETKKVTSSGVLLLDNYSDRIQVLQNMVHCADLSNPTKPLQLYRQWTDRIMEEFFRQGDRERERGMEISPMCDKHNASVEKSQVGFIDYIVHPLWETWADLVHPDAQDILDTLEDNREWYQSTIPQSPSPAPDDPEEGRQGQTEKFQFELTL
Type: biochemical
Procedure: The human PDE4D catalytic domain (UniProt no. Q08499 [S380-L740]) was incubated with a mixture of non-labelled cAMP (cyclic adenosine monophosphate) and fluorescein amidite (FAM) conjugated cAMP and titrated test or reference compound. Following brief incubation the enzymatic reaction was stopped by addition of binding buffer containing nanoparticles with immobilized trivalent metal ions capable of binding 1) AMP phospho groups and 2) terbium (Tb) donor fluorophores. Subsequent excitation of the Tb donor triggers time-resolved FRET to adjacent FAM acceptor molecules resulting in light emission. In the presence of a PDE4 inhibitor, AMP generation was reduced resulting in a lower fluorescence signal. The cAMP phosphodiester is not bound by the detection system.
The results were calculated as the molar concentrations resulting in 50% inhibition of the substrate cleavage compared to controls samples, and are expressed as a range of IC50 (nM).
For `CCc1nn(CCOC(=O)c2ccno2)c2c1C(=O)NCC1(CCOCC1)C2` [Example 1, 2-(3-ethyl-4-oxo-spiro[6,8-dihydro-5H-pyrazolo[4,3-c]azepine-7,4′-tetrahydropyran]-1-yl)ethyl isoxazole-5-carboxylate], the IC50 was 100 to 500 nM. With `CCc1nn(CCOC(=O)c2cocn2)c2c1C(=O)NCC1(CCOCC1)C2` [Example 2, 2-(3-ethyl-4-oxo-spiro[6,8-dihydro-5H-pyrazolo[4,3-c]azepine-7,4′-tetrahydropyran]-1-yl)ethyl oxazole-4-carboxylate] the IC50 was over 500 nM. `CCc1nn(CCOC(=O)c2cnn(C)c2)c2c1C(=O)NCC1(CCOCC1)C2` [Example 3, 2-(3-ethyl-4-oxo-spiro[6,8-dihydro-5H-pyrazolo[4,3-c]azepine-7,4′-tetrahydropyran]-1-yl)ethyl 1-methylpyrazole-4-carboxylate] was tested, and the IC50 was over 500 nM. `CCc1nn(CCOC(=O)c2cc(C)on2)c2c1C(=O)NCC1(CCOCC1)C2` [Example 4, 2-(3-ethyl-4-oxo-spiro[6,8-dihydro-5H-pyrazolo[4,3-c]azepine-7,4′-tetrahydropyran]-1-yl)ethyl 5-methylisoxazole-3-carboxylate] was tested, and the IC50 was 100 to 500 nM. In the case of `CCc1nn(CCOC(=O)c2coc(C)n2)c2c1C(=O)NCC1(CCOCC1)C2` [Example 5, 2-(3-ethyl-4-oxo-spiro[6,8-dihydro-5H-pyrazolo[4,3-c]azepine-7,4′-tetrahydropyran]-1-yl)ethyl 2-methyloxazole-4-carboxylate], the IC50 is reported as over 500 nM. `CCc1nn(CCOC(=O)c2cnc(C)o2)c2c1C(=O)NCC1(CCOCC1)C2` [Example 6, 2-(3-ethyl-4-oxo-spiro[6,8-dihydro-5H-pyrazolo[4,3-c]azepine-7,4′-tetrahydropyran]-1-yl)ethyl 2-methyloxazole-5-carboxylate] showed an IC50 of over 500 nM. `CCc1nn(CCOC(=O)c2cscn2)c2c1C(=O)NCC1(CCOCC1)C2` [Example 7, 2-(3-ethyl-4-oxo-spiro[6,8-dihydro-5H-pyrazolo[4,3-c]azepine-7,4′-tetrahydropyran]-1-yl)ethyl thiazole-4-carboxylate] showed an IC50 of over 500 nM. Work on `CCc1nn(CCOC(=O)C2CCOCC2)c2c1C(=O)NCC1(CCOCC1)C2` [Example 8, 2-(3-ethyl-4-oxo-spiro[6,8-dihydro-5H-pyrazolo[4,3-c]azepine-7,4′-tetrahydropyran]-1-yl)ethyl tetrahydropyran-4-carboxylate] yielded an IC50 of over 500 nM. With `CCc1nn(CCOC(=O)Cc2cccn2C)c2c1C(=O)NCC1(CCOCC1)C2` [Example 9, 2-(3-ethyl-4-oxo-spiro[6,8-dihydro-5H-pyrazolo[4,3-c]azepine-7,4′-tetrahydropyran]-1-yl)ethyl 2-(1-methylpyrrol-2-yl)acetate] the IC50 was over 500 nM. `CCc1nn(CCOC(=O)c2cc(C)n(C)n2)c2c1C(=O)NCC1(CCOCC1)C2` [Example 10, 2-(3-ethyl-4-oxo-spiro[6,8-dihydro-5H-pyrazolo[4,3-c]azepine-7,4′-tetrahydropyran]-1-yl)ethyl 1,5-dimethylpyrazole-3-carboxylate] was tested, and the IC50 was over 500 nM. With `CCc1nn(CCOC(=O)Cc2cc(C)on2)c2c1C(=O)NCC1(CCOCC1)C2` [Example 11, 2-(3-ethyl-4-oxo-spiro[6,8-dihydro-5H-pyrazolo[4,3-c]azepine-7,4′-tetrahydropyran]-1-yl)ethyl 2-(5-methylisoxazol-3-yl)acetate] the IC50 was over 500 nM. With `CCc1nn(CCOC(=O)Cc2cc(C)no2)c2c1C(=O)NCC1(CCOCC1)C2` [Example 12, 2-(3-ethyl-4-oxo-spiro[6,8-dihydro-5H-pyrazolo[4,3-c]azepine-7,4′-tetrahydropyran]-1-yl)ethyl 2-(3-methylisoxazol-5-yl)acetate] the IC50 was over 500 nM. Compound `CCc1nn(CCOC(=O)c2cc(C)ns2)c2c1C(=O)NCC1(CCOCC1)C2` [Example 13, 2-(3-ethyl-4-oxo-spiro[6,8-dihydro-5H-pyrazolo[4,3-c]azepine-7,4′-tetrahydropyran]-1-yl)ethyl 3-methylisothiazole-5-carboxylate] has an IC50 of 100 to 500 nM. With `CCc1nn(CCOC(=O)c2nc(C)cs2)c2c1C(=O)NCC1(CCOCC1)C2` [Example 14, 2-(3-ethyl-4-oxo-spiro[6,8-dihydro-5H-pyrazolo[4,3-c]azepine-7,4′-tetrahydropyran]-1-yl)ethyl 4-methylthiazole-2-carboxylate] the IC50 was 100 to 500 nM. With `CCc1nn(CCOC(=O)Cc2csc(C)n2)c2c1C(=O)NCC1(CCOCC1)C2` [Example 15, 2-(3-ethyl-4-oxo-spiro[6,8-dihydro-5H-pyrazolo[4,3-c]azepine-7,4′-tetrahydropyran]-1-yl)ethyl 2-(2-methylthiazol-4-yl)acetate] the IC50 was over 500 nM. `CCc1nn(CCOC(=O)C2CCN(C(C)=O)CC2)c2c1C(=O)NCC1(CCOCC1)C2` [Example 16, 2-(3-ethyl-4-oxo-spiro[6,8-dihydro-5H-pyrazolo[4,3-c]azepine-7,4′-tetrahydropyran]-1-yl)ethyl 1-acetylpiperidine-4-carboxylate] showed an IC50 of over 500 nM. In the case of `CCc1nn(CCCOC(=O)c2c[nH]cn2)c2c1C(=O)NCC1(CCOCC1)C2` [Example 17, 3-(3-ethyl-4-oxo-spiro[6,8-dihydro-5H-pyrazolo[4,3-c]azepine-7,4′-tetrahydropyran]-1-yl)propyl 1H-imidazole-4-carboxylate], the IC50 is reported as over 500 nM. For `CCc1nn(CCCOC(=O)c2cc[nH]n2)c2c1C(=O)NCC1(CCOCC1)C2` [Example 18, 3-(3-ethyl-4-oxo-spiro[6,8-dihydro-5H-pyrazolo[4,3-c]azepine-7,4′-tetrahydropyran]-1-yl)propyl 1H-pyrazole-3-carboxylate], the IC50 was 100 to 500 nM. For `CCc1nn(CCCOC(=O)c2ncc[nH]2)c2c1C(=O)NCC1(CCOCC1)C2` [Example 19, 3-(3-ethyl-4-oxo-spiro[6,8-dihydro-5H-pyrazolo[4,3-c]azepine-7,4′-tetrahydropyran]-1-yl)propyl 1H-imidazole-2-carboxylate], the IC50 was over 500 nM. With `CCc1nn(CCCOC(=O)c2cn[nH]c2)c2c1C(=O)NCC1(CCOCC1)C2` [Example 20, 3-(3-ethyl-4-oxo-spiro[6,8-dihydro-5H-pyrazolo[4,3-c]azepine-7,4′-tetrahydropyran]-1-yl)propyl 1H-pyrazole-4-carboxylate] the IC50 was 100 to 500 nM. `CCc1nn(CCCOC(=O)c2ccon2)c2c1C(=O)NCC1(CCOCC1)C2` [Example 21, 3-(3-ethyl-4-oxo-spiro[6,8-dihydro-5H-pyrazolo[4,3-c]azepine-7,4′-tetrahydropyran]-1-yl)propyl isoxazole-3-carboxylate] gave an IC50 of over 500 nM. Compound `CCc1nn(CCCOC(=O)c2ccno2)c2c1C(=O)NCC1(CCOCC1)C2` [Example 22, 3-(3-ethyl-4-oxo-spiro[6,8-dihydro-5H-pyrazolo[4,3-c]azepine-7,4′-tetrahydropyran]-1-yl)propyl isoxazole-5-carboxylate] has an IC50 of 100 to 500 nM. For `CCc1nn(CCCOC(=O)c2cocn2)c2c1C(=O)NCC1(CCOCC1)C2` [Example 23, 3-(3-ethyl-4-oxo-spiro[6,8-dihydro-5H-pyrazolo[4,3-c]azepine-7,4′-tetrahydropyran]-1-yl)propyl oxazole-4-carboxylate], the IC50 was over 500 nM. In the case of `CCc1nn(CCCOC(=O)c2cnco2)c2c1C(=O)NCC1(CCOCC1)C2` [Example 24, 3-(3-ethyl-4-oxo-spiro[6,8-dihydro-5H-pyrazolo[4,3-c]azepine-7,4′-tetrahydropyran]-1-yl)propyl oxazole-5-carboxylate], the IC50 is reported as over 500 nM. `CCc1nn(CCCOC(=O)c2c[nH]nn2)c2c1C(=O)NCC1(CCOCC1)C2` [Example 25, 3-(3-ethyl-4-oxo-spiro[6,8-dihydro-5H-pyrazolo[4,3-c]azepine-7,4′-tetrahydropyran]-1-yl)propyl 1H-triazole-4-carboxylate] gave an IC50 of 100 to 500 nM. With `CCc1nn(CCCOC(=O)c2nc[nH]n2)c2c1C(=O)NCC1(CCOCC1)C2` [Example 26, 3-(3-ethyl-4-oxo-spiro[6,8-dihydro-5H-pyrazolo[4,3-c]azepine-7,4′-tetrahydropyran]-1-yl)propyl 1H-1,2,4-triazole-3-carboxylate] the IC50 was over 500 nM. Compound `CCc1nn(CCCOC(=O)c2cnon2)c2c1C(=O)NCC1(CCOCC1)C2` [Example 27, 3-(3-ethyl-4-oxo-spiro[6,8-dihydro-5H-pyrazolo[4,3-c]azepine-7,4′-tetrahydropyran]-1-yl)propyl 1,2,5-oxadiazole-3-carboxylate] has an IC50 of 100 to 500 nM. `CCc1nn(CCCOC(=O)C2CCOC2)c2c1C(=O)NCC1(CCOCC1)C2` (stereo not shown) [Example 28, 3-(3-ethyl-4-oxo-spiro[6,8-dihydro-5H-pyrazolo[4,3-c]azepine-7,4′-tetrahydropyran]-1-yl)propyl tetrahydrofuran-3-carboxylate] gave an IC50 of over 500 nM. Work on `CCc1nn(CCCOC(=O)c2cccnn2)c2c1C(=O)NCC1(CCOCC1)C2` [Example 29, 3-(3-ethyl-4-oxo-spiro[6,8-dihydro-5H-pyrazolo[4,3-c]azepine-7,4′-tetrahydropyran]-1-yl)propyl pyridazine-3-carboxylate] yielded an IC50 of over 500 nM. In the case of `CCc1nn(CCCOC(=O)c2ccnnc2)c2c1C(=O)NCC1(CCOCC1)C2` [Example 30, 3-(3-ethyl-4-oxo-spiro[6,8-dihydro-5H-pyrazolo[4,3-c]azepine-7,4′-tetrahydropyran]-1-yl)propyl pyridazine-4-carboxylate], the IC50 is reported as over 500 nM. `CCc1nn(CCCOC(=O)c2ncccn2)c2c1C(=O)NCC1(CCOCC1)C2` [Example 31, 3-(3-ethyl-4-oxo-spiro[6,8-dihydro-5H-pyrazolo[4,3-c]azepine-7,4′-tetrahydropyran]-1-yl)propyl pyrimidine-2-carboxylate] showed an IC50 of over 500 nM.
